Data reported in patent US12550899B2, “Topramezone derivative and use thereof” (priority 2023, dated 2026).
“Also recorded” adds a separate entry of the source.

Experiments:
Digitaria sanguinalis = assay: Laboratory rainfastness test (foliar spray, simulated rainfall); type: in vivo; details: for Average fresh weight / Control efficacy: 20 days post-application; for Rainfastness compared with Topramezone (in words): in vivo
Description: Refer to the “Pesticides guidelines for laboratory bioactivity tests Part 4: Foliar spray application test for herbicide activity, NY/T 1155.4-2006”.
The soil used for the test was a mixture of surface 20 cm loam and vermiculite, mixed in a volume ratio of 3:1 to form a culture soil. The test weeds were cultured in a glass greenhouse with a temperature ranging from 25° C. to 35° C. and under natural light.
A measured quantity of Digitaria sanguinalis seeds were sown in plastic pots with a diameter of 9 cm, and covered with 1-2 mm of soil. The ports were then placed in enamel trays filled with water, and watered by bottom irrigation. After the water seeped to the soil surface, the pots were transferred to the glass greenhouse for standby.
Five dosages were set for Compound I, Compound II and the control herbicide Topramezone, which were 3.75, 7.5, 15, 30 and 60 grams of active ingredient per hectare respectively. In addition, a blank control was also prepared.
The required amount of the herbicide was accurately measured out and directly added with water, which was diluted to the required dosage by using the serial dilution method for standby.
(§1) The test was conducted on Digitaria sanguinalis at the two-leaf and one-heart stage, with the stems and leaves both sprayed uniformly. The ASS-4 automatic control spraying system with a fan-shaped nozzle was used indoors for herbicide application. Depending on the nozzle pressure and flow rate, 50 mL of herbicide solution was applied to a spraying area of 1.1 m^2 (which was equivalent to the water consumption of 30 L per mu). The system's operating speed was calibrated. The plastic pots to be treated were arranged evenly on the spraying platform to ensure uniform treatment. The spray pressure was set to 0.35 MPa, and the flow rate of the fan-shaped nozzle was set to 800 mL/min. The spraying was carried out in sequence from the low dosage to the high dosage. Each treatment was repeated four times.
The rainfastness test was set as follows: at 0.5 hours, 1.0 hour, 3.0 hours, and 6.0 hours after the application of the herbicide, the weeds that have already been sprayed with the herbicide were subjected to stem and leaf showering with a specific shower equipment simulating rainfall. Weeds that were not subjected to the showering treatment served as the control group.
The damage symptoms of the weeds (such as growth inhibition, chlorosis, malformation, etc.) were carefully recorded at 3, 7, 10, and 20 days after herbicide application. A visual comparison of the herbicide effectiveness was made after simulated rainfall at different time intervals. At 20 days post-application, the fresh weight of the aboveground parts of the weeds from each treatment group was measured, and the fresh weight control efficacy was calculated.
The treatment results were calculated according to the following formula: weed fresh weight control efficacy (%)=(control fresh weight−treatment fresh weight)/control fresh weight×100. A DPS statistical software was used to conduct regression analysis on the logarithmic values of the herbicide dosage and the probit values of the weed fresh weight control efficacy, and the correlation coefficient, GR50, GR90, and the 95% confidence interval were calculated.

corn = assay: Corn safety laboratory test, visual observation and overall conclusion; type: in vivo; details: in vivo
Description: Three corn varieties: Zhengdan 958, white waxy corn, and sweet corn (Runhua sweet corn).
The soil used for the test was a mixture of surface 20 cm loam and vermiculite, mixed in a volume ratio of 3:1 to form a culture soil. The test corn was cultured in a glass greenhouse with a temperature ranging from 25° C. to 35° C. and under natural light.
A measured quantity of corn seeds were sown in plastic pots with a diameter of 15 cm, and covered with 2-3 cm of soil. The ports were then placed in enamel trays filled with water, and watered by bottom irrigation. After sowing, the pots were transferred to the glass greenhouse for cultivation and growth.
In the corn safety test, dosages were set for the two Compounds (Compound I of the present invention and Compound II of the present invention) and the control herbicide Topramezone, which were 15, 30, 60, and 120 grams of active ingredient per hectare respectively. In addition, a blank control was also prepared.
The required amount of the herbicide was accurately measured out, an appropriate amount of emulsifier and organic solvent were added to dissolve the herbicide, and then a certain amount of water was added therein until the herbicide was diluted to the required dosage by using the serial dilution method for standby.
Corn stems and leaves were uniformly sprayed at the 3-4-leaf stage.
as §1, with “ASS-3” for “test was conducted on Digitaria sanguinalis at the two-leaf and one-heart stage, with the stems and leaves both sprayed uniformly. The ASS-4”, “three” for “four”
The herbicide was applied once. After spraying, the pots were air-dried for one day and then placed in the glass greenhouse. Regular watering was conducted to maintain moisture.
After application of the herbicide, whether there were any phytotoxic symptoms in the corn for each treatment was recorded. If yes, the phytotoxicity symptoms and grade were recorded in detail. 15 days after application, the fresh weight of the corn in each treatment was measured and the fresh weight control efficacy was calculated to assess the safety of the herbicide on the corn.

[1] = No spraying (no simulated rainfall), dosage 3.75 g/hectare
[2] = No spraying (no simulated rainfall), dosage 7.5 g/hectare
[3] = No spraying (no simulated rainfall), dosage 15 g/hectare
[4] = No spraying (no simulated rainfall), dosage 30 g/hectare
[5] = No spraying (no simulated rainfall), dosage 60 g/hectare
[6] = Spraying water 0.5 hour after herbicide application, dosage 3.75 g/hectare
[7] = Spraying water 0.5 hour after herbicide application, dosage 7.5 g/hectare
[8] = Spraying water 0.5 hour after herbicide application, dosage 15 g/hectare
[9] = Spraying water 0.5 hour after herbicide application, dosage 30 g/hectare
[10] = Spraying water 0.5 hour after herbicide application, dosage 60 g/hectare
[11] = Spraying water 1.0 hour after herbicide application, dosage 3.75 g/hectare
[12] = Spraying water 1.0 hour after herbicide application, dosage 7.5 g/hectare
[13] = Spraying water 1.0 hour after herbicide application, dosage 15 g/hectare
[14] = Spraying water 1.0 hour after herbicide application, dosage 30 g/hectare
[15] = Spraying water 1.0 hour after herbicide application, dosage 60 g/hectare
[16] = Spraying water 3.0 hour after herbicide application, dosage 3.75 g/hectare
[17] = Spraying water 3.0 hour after herbicide application, dosage 7.5 g/hectare
[18] = Spraying water 3.0 hour after herbicide application, dosage 15 g/hectare
[19] = Spraying water 3.0 hour after herbicide application, dosage 30 g/hectare
[20] = Spraying water 3.0 hour after herbicide application, dosage 60 g/hectare
[21] = Spraying water 6.0 hour after herbicide application, dosage 3.75 g/hectare
[22] = Spraying water 6.0 hour after herbicide application, dosage 7.5 g/hectare
[23] = Spraying water 6.0 hour after herbicide application, dosage 15 g/hectare
[24] = Spraying water 6.0 hour after herbicide application, dosage 30 g/hectare
[25] = Spraying water 6.0 hour after herbicide application, dosage 60 g/hectare
[26] = rain 0.5 h, 1.0 h and 3.0 h after application

COC(=O)OC(C)Oc1c(C(=O)c2ccc(S(C)(=O)=O)c(C3=NOCC3)c2C)cnn1C (centres unmarked) [Compound I, 1-((4-(3-(4,5-dihydroisoxazol-3-yl)-2-methyl-4-(methylsulfonyl)benzoyl)-1-methyl-1H-pyrazol-5-yl)oxy)ethyl methyl carbonate]
Average fresh weight (Digitaria sanguinalis; [1]): 6.3 g
Control efficacy (Digitaria sanguinalis; [1]): 3.1%
Average fresh weight (Digitaria sanguinalis; [2]): 5.1 g
Control efficacy (Digitaria sanguinalis; [2]): 21.8%
Average fresh weight (Digitaria sanguinalis; [3]): 3.2 g
Control efficacy (Digitaria sanguinalis; [3]): 50.6%
Average fresh weight (Digitaria sanguinalis; [4]): 2.6 g
Control efficacy (Digitaria sanguinalis; [4]): 60.5%
Average fresh weight (Digitaria sanguinalis; [5]): 1.1 g
Control efficacy (Digitaria sanguinalis; [5]): 82.8%
Average fresh weight (Digitaria sanguinalis; [6]): 6.1 g
Control efficacy (Digitaria sanguinalis; [6]): 6.9%
Average fresh weight (Digitaria sanguinalis; [7]): 5.1 g
Control efficacy (Digitaria sanguinalis; [7]): 22.2%
Average fresh weight (Digitaria sanguinalis; [8]): 3.6 g
Control efficacy (Digitaria sanguinalis; [8]): 45.6%
Average fresh weight (Digitaria sanguinalis; [9]): 2.6 g
Control efficacy (Digitaria sanguinalis; [9]): 60.9%
Average fresh weight (Digitaria sanguinalis; [10]): 1.1 g
Control efficacy (Digitaria sanguinalis; [10]): 82.8%
Average fresh weight (Digitaria sanguinalis; [11]): 6.1 g
Control efficacy (Digitaria sanguinalis; [11]): 7.3%
Average fresh weight (Digitaria sanguinalis; [12]): 5.2 g
Control efficacy (Digitaria sanguinalis; [12]): 21.1%
Average fresh weight (Digitaria sanguinalis; [13]): 3.9 g
Control efficacy (Digitaria sanguinalis; [13]): 41.0%
Average fresh weight (Digitaria sanguinalis; [14]): 2.3 g
Control efficacy (Digitaria sanguinalis; [14]): 64.8%
Average fresh weight (Digitaria sanguinalis; [15]): 0.9 g
Control efficacy (Digitaria sanguinalis; [15]): 86.6%
Average fresh weight (Digitaria sanguinalis; [16]): 5.6 g
Control efficacy (Digitaria sanguinalis; [16]): 14.9%
Average fresh weight (Digitaria sanguinalis; [17]): 4.7 g
Control efficacy (Digitaria sanguinalis; [17]): 28.7%
Average fresh weight (Digitaria sanguinalis; [18]): 3.3 g
Control efficacy (Digitaria sanguinalis; [18]): 50.2%
Average fresh weight (Digitaria sanguinalis; [19]): 2.7 g
Control efficacy (Digitaria sanguinalis; [19]): 58.2%
Average fresh weight (Digitaria sanguinalis; [20]): 0.9 g
Control efficacy (Digitaria sanguinalis; [20]): 86.6%
Average fresh weight (Digitaria sanguinalis; [21]): 6.0 g
Control efficacy (Digitaria sanguinalis; [21]): 8.4%
Average fresh weight (Digitaria sanguinalis; [22]): 5.0 g
Control efficacy (Digitaria sanguinalis; [22]): 23.4%
Average fresh weight (Digitaria sanguinalis; [23]): 2.7 g
Control efficacy (Digitaria sanguinalis; [23]): 58.6%
Average fresh weight (Digitaria sanguinalis; [24]): 2.3 g
Control efficacy (Digitaria sanguinalis; [24]): 64.4%
Average fresh weight (Digitaria sanguinalis; [25]): 1.1 g
Control efficacy (Digitaria sanguinalis; [25]): 82.8%
Rainfastness compared with Topramezone (in words) (Digitaria sanguinalis): significantly better rainfastness
Effect of rain on control efficacy (in words) (Digitaria sanguinalis; [26]): remained stable
Effect of rain on control efficacy (in words) (Digitaria sanguinalis; rain 0.5 h after application): little impact; also recorded: almost unaffected
Visual observation of corn (corn): all normal

Cc1c(C(=O)c2cnn(C)c2OC(=O)C(C)(C)C)ccc(S(C)(=O)=O)c1C1=NOCC1 [Compound II, 4-(3-(4,5-dihydroisoxazol-3-yl)-2-methyl-4-(methylsulfonyl)benzoyl)-1-methyl-1H-pyrazol-5-yl pivalate]
Average fresh weight (Digitaria sanguinalis; [1]): 6.0 g
Control efficacy (Digitaria sanguinalis; [1]): 8.8%
Average fresh weight (Digitaria sanguinalis; [2]): 4.7 g
Control efficacy (Digitaria sanguinalis; [2]): 28.7%
Average fresh weight (Digitaria sanguinalis; [3]): 3.4 g
Control efficacy (Digitaria sanguinalis; [3]): 47.9%
Average fresh weight (Digitaria sanguinalis; [4]): 2.3 g
Control efficacy (Digitaria sanguinalis; [4]): 64.4%
Average fresh weight (Digitaria sanguinalis; [5]): 1.0 g
Control efficacy (Digitaria sanguinalis; [5]): 84.7%
Average fresh weight (Digitaria sanguinalis; [6]): 6.2 g
Control efficacy (Digitaria sanguinalis; [6]): 5.7%
Average fresh weight (Digitaria sanguinalis; [7]): 4.6 g
Control efficacy (Digitaria sanguinalis; [7]): 29.1%
Average fresh weight (Digitaria sanguinalis; [8]): 3.6 g
Control efficacy (Digitaria sanguinalis; [8]): 45.2%
Average fresh weight (Digitaria sanguinalis; [9]): 2.5 g
Control efficacy (Digitaria sanguinalis; [9]): 62.1%
Average fresh weight (Digitaria sanguinalis; [10]): 0.6 g
Control efficacy (Digitaria sanguinalis; [10]): 90.8%
Average fresh weight (Digitaria sanguinalis; [11]): 5.9 g
Control efficacy (Digitaria sanguinalis; [11]): 10.0%
Average fresh weight (Digitaria sanguinalis; [12]): 5.3 g
Control efficacy (Digitaria sanguinalis; [12]): 18.8%
Average fresh weight (Digitaria sanguinalis; [13]): 3.3 g
Control efficacy (Digitaria sanguinalis; [13]): 49.0%
Average fresh weight (Digitaria sanguinalis; [14]): 2.4 g
Control efficacy (Digitaria sanguinalis; [14]): 64.0%
Average fresh weight (Digitaria sanguinalis; [15]): 0.8 g
Control efficacy (Digitaria sanguinalis; [15]): 88.5%
Average fresh weight (Digitaria sanguinalis; [16]): 6.0 g
Control efficacy (Digitaria sanguinalis; [16]): 8.8%
Average fresh weight (Digitaria sanguinalis; [17]): 5.1 g
Control efficacy (Digitaria sanguinalis; [17]): 22.2%
Average fresh weight (Digitaria sanguinalis; [18]): 3.9 g
Control efficacy (Digitaria sanguinalis; [18]): 40.6%
Average fresh weight (Digitaria sanguinalis; [19]): 2.0 g
Control efficacy (Digitaria sanguinalis; [19]): 70.1%
Average fresh weight (Digitaria sanguinalis; [20]): 1.0 g
Control efficacy (Digitaria sanguinalis; [20]): 84.7%
Average fresh weight (Digitaria sanguinalis; [21]): 6.1 g
Control efficacy (Digitaria sanguinalis; [21]): 6.5%
Average fresh weight (Digitaria sanguinalis; [22]): 4.7 g
Control efficacy (Digitaria sanguinalis; [22]): 27.6%
Average fresh weight (Digitaria sanguinalis; [23]): 3.6 g
Control efficacy (Digitaria sanguinalis; [23]): 44.8%
Average fresh weight (Digitaria sanguinalis; [24]): 2.2 g
Control efficacy (Digitaria sanguinalis; [24]): 66.7%
Average fresh weight (Digitaria sanguinalis; [25]): 0.8 g
Control efficacy (Digitaria sanguinalis; [25]): 87.4%
Rainfastness compared with Topramezone (in words) (Digitaria sanguinalis): significantly better rainfastness
Effect of rain on control efficacy (in words) (Digitaria sanguinalis; [26]): remained stable
Effect of rain on control efficacy (in words) (Digitaria sanguinalis; rain 0.5 h after application): little impact; also recorded: almost unaffected
